From US8598146B2, “Methods for identifying modulators of protein kinase C-epsilon (PKCε) and method of treatment of aberrant glucose metabolism associated therewith” (Garvan Institute of Medical Research, priority 2003, dated 2013)

Tests used:
pancreatic beta cells = conditions: 100 nM glyburide in the presence of 20 mM glucose; cited from earlier work
pancreatic islets = test: glucose-stimulated insulin secretion from pancreatic islets with carbamylcholine (FIG. 13); assay type: cell-based, mouse; conditions: 0.1 mM carbamylcholine with 20 mM glucose; islets from wild type and PKCε−/− mice

SMILES	insulin secretion (pancreatic beta cells)	glucose-stimulated insulin secretion (pancreatic islets)
COc1ccc(Cl)cc1C(=O)NCCc1ccc(S(=O)(=O)NC(=O)NC2CCCCC2)cc1 [glyburide]	enhances insulin secretion	–
C[N+](C)(C)CCOC(N)=O.[Cl-] [carbamylcholine]	–	potentiation
